Where two headings read alike, the source gives them in different places.
Columns and labels:
Type in all cases: biochemical
PI3Kα H1047R mutant = PI3Kα H1047R mutant (Homo sapiens, UniProt P42336, H1047R); test: ADP-Glo catalytic activity, oncogenic mutant H1047R
Method: For characterisation of the effects of 1938 on in vitro PI3K enzymology, all reactions were performed at room temperature with 384 white-polystyrene plates (Corning #3574). The final DMSO concentration in the assay was between 0.5%-1.8%. The reaction mixture contained 2 μl PI3K enzyme, 2 μl compound and/or pY and 2 μl of liposome substrate mixed with ATP. ATP was used at a final concentration of 200 μM, unless otherwise stated. The enzyme and compounds were pre-incubated for 10 min prior to addition of substrate. The reaction was allowed to proceed for up to 45 min at room temperature, before addition of 6 μl of ADP-Glo R1 to terminate the reaction. The plate was incubated for 60 min, followed by addition of 12 μl of ADP-Glo R2 and incubated further for 60 min in the dark. Data was expressed as velocity (nmol of ADP generated/nmol of enzyme/sec). ADP-ATP standard curves were performed according to the manufacturer’s instructions. Luminescence was read using a PHERAstar® plate reader with software version 5.41, and analyses were performed using GraphPad Prism 8/9.

PIK3C3 (hVPS34) = PIK3C3 (hVPS34) (Homo sapiens, UniProt Q8NEB9); test: SelectScreen Adapta
PIK3C3 (hVPS34), sequence (Q8NEB9 whole entry): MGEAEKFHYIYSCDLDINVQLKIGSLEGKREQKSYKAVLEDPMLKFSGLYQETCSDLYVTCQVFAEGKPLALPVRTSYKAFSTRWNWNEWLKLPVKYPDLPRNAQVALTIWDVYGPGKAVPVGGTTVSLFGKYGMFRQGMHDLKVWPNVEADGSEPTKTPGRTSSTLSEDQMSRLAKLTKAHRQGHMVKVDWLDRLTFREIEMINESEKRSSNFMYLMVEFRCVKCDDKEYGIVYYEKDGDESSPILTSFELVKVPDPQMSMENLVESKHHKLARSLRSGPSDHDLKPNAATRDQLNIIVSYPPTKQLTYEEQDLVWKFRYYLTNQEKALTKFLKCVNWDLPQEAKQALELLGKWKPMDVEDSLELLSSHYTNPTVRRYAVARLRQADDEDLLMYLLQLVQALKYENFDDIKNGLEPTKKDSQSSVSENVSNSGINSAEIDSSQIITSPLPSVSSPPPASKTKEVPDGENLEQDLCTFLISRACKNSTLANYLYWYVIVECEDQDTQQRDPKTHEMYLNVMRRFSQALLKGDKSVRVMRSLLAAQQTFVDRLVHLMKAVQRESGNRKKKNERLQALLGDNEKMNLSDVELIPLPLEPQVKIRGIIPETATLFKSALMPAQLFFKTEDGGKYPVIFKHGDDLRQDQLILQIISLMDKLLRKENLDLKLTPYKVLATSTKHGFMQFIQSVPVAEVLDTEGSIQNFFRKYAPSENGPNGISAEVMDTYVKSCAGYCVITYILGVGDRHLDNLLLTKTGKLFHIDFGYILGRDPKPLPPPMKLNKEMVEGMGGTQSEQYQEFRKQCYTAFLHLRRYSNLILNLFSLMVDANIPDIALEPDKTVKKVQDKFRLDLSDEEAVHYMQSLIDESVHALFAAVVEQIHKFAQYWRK
Method: (§1) 133 protein kinases and 7 lipid kinases were counterscreened, with 1938 used at 1 μM, using the Adapta, Lantha and Z-LYTE assays (SelectScreen Kinase Profiling Service; Thermofisher – experimental details of these assays can be found here: https://www.thermofisher.com/uk/en/home/industrial/pharma-biopharma/drug-discovery-development/target-and-lead-identification-and-validation/kinasebiology/kinase-activity-assays.html. The tree represention in KinMap[59] generated courtesy of Cell Signaling Technology, Inc. (www.cellsignal.com). mTORC1 (mTOR/RAPTOR/LST8) protein complex and ATM kinase and substrates were produced as previously described[57],[60]. Screening of 1938 was conducted using SuperSep Phos-Tag 50 μmol/l 100 x 100 x 6.6 mm 17-well (192-18001/199-18011) gels. For ATM assays, 100 nM ATM was incubated for 30 min at 30°C with 5 μM GST-p53 and 1 mM ATP, in the absence or presence of 200 μM 1938 in ATM Kinase Buffer (50 mM HEPES pH 7.5, 100 mM NaCl, 10% glycerol, 2 mM […], 5 mM MgCl2). As a positive control for ATM activation, the same reaction was carried out with 100 nM ATM/5 μM GST-p53/1 mM ATP in the presence of 100 nM Mre11-Rad50-Nbs1 (MRN) complex, a known activator of ATM[61]. For mTORC1 assays, 50 nM mTORC1 complex (mTOR/LST8/RAPTOR) was incubated for 3 h at 30°C with 15 μM 4E-BP1, 10 mM MgCl2 and 250 μM ATP, in the absence or presence of 200 μM 1938. As a ‘positive’ control, a higher concentration (150 nM) of mTORC1 complex (mTOR/LST8/RAPTOR) was incubated for 3 h at 30°C with 15 μM 4E-BP1, 10 mM MgCl2 and 250 μM ATP. Kinase reactions were quenched by addition of SDS-PAGE Loading Buffer (as per manufacturer’s instructions) and freezing at -20°C before being run on the Phos-tag gels at 150 V for 90 min. Gels were then stained using InstantBlue™ Coomassie, and quantified using BioRad Image Lab Software. Kinase assays were carried out in triplicate.

CAMK1 (CaMK1) = CAMK1 (CaMK1) (Homo sapiens, UniProt Q14012); test: SelectScreen Adapta; conditions: 1000 nM, [ATP] 10 μM
Method: as §1

PIK3CG (p110 gamma) = PIK3CG (p110 gamma) (Homo sapiens, UniProt P48736); test: SelectScreen Adapta
PIK3CG (p110 gamma), sequence (P48736 whole entry): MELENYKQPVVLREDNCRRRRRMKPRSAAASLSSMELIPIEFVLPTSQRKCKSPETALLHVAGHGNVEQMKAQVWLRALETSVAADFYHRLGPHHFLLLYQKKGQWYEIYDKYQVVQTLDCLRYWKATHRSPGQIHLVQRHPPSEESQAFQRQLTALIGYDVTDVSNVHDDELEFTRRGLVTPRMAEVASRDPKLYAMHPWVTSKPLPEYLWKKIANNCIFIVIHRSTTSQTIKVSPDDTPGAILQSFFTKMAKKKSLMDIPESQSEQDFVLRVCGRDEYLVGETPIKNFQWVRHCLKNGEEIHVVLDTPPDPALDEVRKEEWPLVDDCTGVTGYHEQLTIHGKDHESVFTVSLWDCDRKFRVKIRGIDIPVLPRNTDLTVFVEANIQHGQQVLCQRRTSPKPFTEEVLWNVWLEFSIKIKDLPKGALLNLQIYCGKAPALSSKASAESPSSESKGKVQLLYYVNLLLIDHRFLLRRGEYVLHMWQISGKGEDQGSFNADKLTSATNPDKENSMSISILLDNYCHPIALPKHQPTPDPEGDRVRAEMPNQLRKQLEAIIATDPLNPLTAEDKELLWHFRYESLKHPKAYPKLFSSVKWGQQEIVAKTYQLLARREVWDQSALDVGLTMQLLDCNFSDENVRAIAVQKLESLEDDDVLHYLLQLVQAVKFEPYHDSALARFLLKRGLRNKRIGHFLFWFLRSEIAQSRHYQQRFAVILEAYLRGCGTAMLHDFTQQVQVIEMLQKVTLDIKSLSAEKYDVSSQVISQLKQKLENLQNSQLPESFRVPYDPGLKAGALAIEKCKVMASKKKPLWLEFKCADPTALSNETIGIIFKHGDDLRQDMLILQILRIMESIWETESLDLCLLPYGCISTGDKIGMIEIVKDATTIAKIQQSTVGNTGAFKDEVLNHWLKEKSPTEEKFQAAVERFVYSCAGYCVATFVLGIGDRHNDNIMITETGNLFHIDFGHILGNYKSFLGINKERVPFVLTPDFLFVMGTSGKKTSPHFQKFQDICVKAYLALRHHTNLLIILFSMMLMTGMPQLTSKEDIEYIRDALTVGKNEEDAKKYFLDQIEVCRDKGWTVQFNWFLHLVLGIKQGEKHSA
Method: as §1

NUAK1 (ARK5) = biological target: T1, NUAK1 (ARK5) (Homo sapiens, UniProt O60285); test: SelectScreen Adapta
T1 sequence (O60285 1-661): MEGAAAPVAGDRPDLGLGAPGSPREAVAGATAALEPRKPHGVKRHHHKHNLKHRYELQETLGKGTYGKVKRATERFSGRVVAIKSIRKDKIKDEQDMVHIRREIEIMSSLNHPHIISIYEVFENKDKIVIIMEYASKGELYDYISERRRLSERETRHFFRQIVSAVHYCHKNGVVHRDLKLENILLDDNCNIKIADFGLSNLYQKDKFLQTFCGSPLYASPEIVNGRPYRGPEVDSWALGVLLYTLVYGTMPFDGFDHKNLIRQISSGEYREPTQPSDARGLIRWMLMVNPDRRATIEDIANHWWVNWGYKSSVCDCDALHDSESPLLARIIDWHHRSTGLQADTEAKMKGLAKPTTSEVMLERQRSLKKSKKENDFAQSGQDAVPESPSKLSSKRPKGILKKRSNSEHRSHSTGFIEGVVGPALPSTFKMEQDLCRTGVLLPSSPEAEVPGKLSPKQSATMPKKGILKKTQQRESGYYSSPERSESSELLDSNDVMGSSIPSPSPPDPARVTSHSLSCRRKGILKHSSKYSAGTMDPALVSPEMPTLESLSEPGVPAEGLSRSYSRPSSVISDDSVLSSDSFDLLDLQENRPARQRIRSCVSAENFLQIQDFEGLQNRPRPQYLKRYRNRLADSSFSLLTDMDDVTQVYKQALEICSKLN
Method: as §1

PI3Kα H1047R mutant, sequence (P42336 whole entry H1047R): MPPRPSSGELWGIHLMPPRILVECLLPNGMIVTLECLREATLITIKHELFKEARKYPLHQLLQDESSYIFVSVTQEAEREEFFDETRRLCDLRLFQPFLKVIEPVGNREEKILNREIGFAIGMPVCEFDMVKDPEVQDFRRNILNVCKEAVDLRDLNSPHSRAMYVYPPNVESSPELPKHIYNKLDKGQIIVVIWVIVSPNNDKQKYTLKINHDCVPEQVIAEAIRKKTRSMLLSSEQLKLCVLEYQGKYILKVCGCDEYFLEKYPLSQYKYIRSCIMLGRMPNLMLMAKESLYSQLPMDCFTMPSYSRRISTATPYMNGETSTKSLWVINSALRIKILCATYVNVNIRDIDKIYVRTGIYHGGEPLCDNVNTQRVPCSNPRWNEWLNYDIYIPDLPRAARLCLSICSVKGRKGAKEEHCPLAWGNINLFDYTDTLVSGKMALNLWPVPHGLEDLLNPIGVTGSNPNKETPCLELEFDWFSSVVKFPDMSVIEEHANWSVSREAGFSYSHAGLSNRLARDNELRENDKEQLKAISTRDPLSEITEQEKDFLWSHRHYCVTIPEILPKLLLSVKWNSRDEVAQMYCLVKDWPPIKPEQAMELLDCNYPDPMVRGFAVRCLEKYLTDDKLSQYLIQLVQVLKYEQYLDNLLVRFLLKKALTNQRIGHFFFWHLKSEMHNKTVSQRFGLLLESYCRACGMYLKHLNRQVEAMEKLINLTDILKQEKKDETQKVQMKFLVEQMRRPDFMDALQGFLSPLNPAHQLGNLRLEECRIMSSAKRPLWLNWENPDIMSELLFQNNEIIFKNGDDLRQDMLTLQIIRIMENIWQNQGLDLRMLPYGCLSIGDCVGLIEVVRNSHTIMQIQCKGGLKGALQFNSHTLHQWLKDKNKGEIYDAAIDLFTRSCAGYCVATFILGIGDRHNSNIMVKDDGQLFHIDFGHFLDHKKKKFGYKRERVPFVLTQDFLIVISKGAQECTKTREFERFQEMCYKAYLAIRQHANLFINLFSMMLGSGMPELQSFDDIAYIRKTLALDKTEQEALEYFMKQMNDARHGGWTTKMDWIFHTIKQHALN
PI3Kα H1047R mutant, sequence (P27986 whole entry partner): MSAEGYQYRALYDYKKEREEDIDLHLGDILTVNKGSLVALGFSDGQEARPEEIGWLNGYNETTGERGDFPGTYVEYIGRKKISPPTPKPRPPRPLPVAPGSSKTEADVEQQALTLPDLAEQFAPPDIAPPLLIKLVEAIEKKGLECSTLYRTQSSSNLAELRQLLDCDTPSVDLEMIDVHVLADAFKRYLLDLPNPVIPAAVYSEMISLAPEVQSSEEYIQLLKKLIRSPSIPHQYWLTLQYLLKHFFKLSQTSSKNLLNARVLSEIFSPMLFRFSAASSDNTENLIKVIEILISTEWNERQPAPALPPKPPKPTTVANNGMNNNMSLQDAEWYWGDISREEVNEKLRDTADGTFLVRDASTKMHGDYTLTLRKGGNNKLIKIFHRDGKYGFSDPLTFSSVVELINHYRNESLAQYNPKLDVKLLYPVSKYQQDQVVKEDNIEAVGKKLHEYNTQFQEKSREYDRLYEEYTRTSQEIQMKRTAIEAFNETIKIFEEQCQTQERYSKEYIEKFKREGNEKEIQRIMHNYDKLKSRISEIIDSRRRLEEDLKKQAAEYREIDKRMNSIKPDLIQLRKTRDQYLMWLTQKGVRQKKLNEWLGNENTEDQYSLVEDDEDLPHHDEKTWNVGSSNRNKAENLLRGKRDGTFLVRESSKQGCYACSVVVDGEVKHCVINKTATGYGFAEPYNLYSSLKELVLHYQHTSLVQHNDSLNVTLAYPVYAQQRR

## CCN1CCN(c2ccc(Nc3cc(Nc4cccc5c4N(C(C)=O)CC5)ccn3)cc2)CC1 [Compound 1938]
PI3Kα H1047R mutant
  activation of H1047R mutant: levels comparable with stimulation with pY
PIK3C3 (hVPS34); read-out: % Inhibition Point 1
  inhibition at 1 µM: 3.28%
PIK3C3 (hVPS34); read-out: % Inhibition Point 2
  inhibition at 1 µM: 7.6%
PIK3C3 (hVPS34); read-out: % Inhibition mean
  inhibition at 1 µM: 5.44%
CAMK1 (CaMK1); read-out: % Inhibition Point 1
  inhibition at 1 µM: 26%
CAMK1 (CaMK1); read-out: % Inhibition Point 2
  inhibition at 1 µM: 23%
CAMK1 (CaMK1); read-out: % Inhibition mean
  inhibition at 1 µM: 25%
PIK3CG (p110 gamma); read-out: % Inhibition Point 1
  inhibition at 1 µM: 4.3%
PIK3CG (p110 gamma); read-out: % Inhibition Point 2
  inhibition at 1 µM: 13%
PIK3CG (p110 gamma); read-out: % Inhibition mean
  inhibition at 1 µM: 8.53%
NUAK1 (ARK5); read-out: % Inhibition Point 1
  inhibition at 1 µM: 45%
NUAK1 (ARK5); read-out: % Inhibition Point 2
  inhibition at 1 µM: 39%
NUAK1 (ARK5); read-out: % Inhibition mean
  inhibition at 1 µM: 42%

From PMC7614683, “A small molecule PI3Kα activator for cardioprotection and neuroregeneration” (Nature, 2023)
